Test results reported in the OPERA property sets (Mansouri et al. 2018).
Peptide text beside a SMILES is read from it.

| SMILES | logP |
| --- | --- |
| CC(=O)N[C@H](C(=O)N[C@@H](C)C(=O)N[C@H](C(N)=O)C(C)C)C(C)C (Ac-Val-Ala-Val-NH2) | -0.67 |
| [N-]=[N+]=NC1CC(n2cnc3c(=O)[nH]c(N)nc32)OC1CO (configuration not stated) | -0.33 |
| O=[N+]([O-])c1ccc(OCC(O)CNCC(O)COc2ccccc2)cc1 (configuration not stated) | 2.62 |
| CCCC(C)=O | 0.91 |
| Nc1ncnc2ncn(C(c3ccccc3)c3ccccc3)c12 | 3.19 |
| c1ccc(-c2nc3ccccc3s2)cc1 | 4.26 |
| COC(=O)c1ccc(C(=O)OC)cc1 | 2.25 |
| CC(=O)Nc1cccc2cccnc12 | 1.91 |
| O=C(O)c1ccc(O)c(O)c1 | 0.86 |
| COC(=O)c1ccc(OC)cc1 | 2.27 |
| CCn1nnc(Oc2ccc(NC(=O)N(C)C)cc2Cl)n1 | 1.7 |
| O=C(NC(CO)C(O)c1ccc([N+](=O)[O-])cc1)C(F)F (configuration not stated) | 0.42 |
| C/N=C(\N)NC#N | -0.77 |
| O=C1C(=O)c2cccc3cccc1c23 | 1.95 |
| O=S(=O)(Nc1ccccc1)c1ccccc1 | 2.58 |
| CN(C)c1cccc(O)c1 | 1.56 |
| ClC(Cl)(Cl)Sc1ccccc1 | 3.78 |
| CN(C)C(N(C)C)=S(I)c1ccccc1C(=O)O (configuration not stated) | -1.4 |
| CCOC(=O)c1cc(O)c(O)c(O)c1 | 1.3 |
| O=[N+]([O-])c1nccn1C1OC(CI)C(O)C1O (configuration not stated) | 0.32 |
| c1ccc(C23CC4CC(CC(C4)C2)C3)cc1 | 5.55 |

| SMILES | logP |
| --- | --- |
| c1ccsc1 | 1.81 |
| CC(C)C(O)C(C(=O)O)c1ccc(-c2ccccc2)cc1 (configuration not stated) | 3.84 |
| CC(=O)Nc1ccc2cccnc2c1 | 1.55 |
| O=[N+]([O-])c1ccccc1F | 1.69 |
| c1ccc(Sc2ccccc2)cc1 | 4.45 |
| CN(C)CC(F)(F)F | 1.06 |
| CCN(C(=O)SCc1ccccc1)C(C)C(C)C (configuration not stated) | 4.6 |
| NNC(=O)c1cccc(Cl)c1 | 1.18 |
| CCN(CC)Cc1cccnc1 | 1.01 |
| OCC(O)CO | -1.76 |
| COc1ccc2nc(N)[nH]c2c1 | 0.57 |
| NS(=O)(=O)c1cc2c(cc1Cl)NC(CC1CCCC1)NS2(=O)=O (configuration not stated) | 1.27 |
| CCn1c(=O)c2nc(-c3ccc(S(=O)(=O)NCCN(C)C)cc3)[nH]c2n(CC)c1=O | 2.57 |
| ClCC#CCCl | 2.01 |
| C=CCN(C(C)=O)C(C)C | 1.14 |
| ClCc1cccc(CCl)c1 | 2.72 |
| CCOC(=O)CON=Cc1ccc(OCCOC(=O)CC)c(OC)c1 | 2.39 |
| O=C(O)c1ccc(O)c(O)c1O | 1.05 |
| O=Nc1ccc(O)cc1 | 1.29 |
| C[C@H](N)[C@H](O)c1cccc(O)c1 | -0.27 |
| CCCN(N=O)C(N)=O | 0.3 |

| SMILES | logP |
| --- | --- |
| O=C(O)COc1cccc(C(=O)O)c1 | 1.11 |
| CCC(C)NC(=O)C=C(Br)c1ccccc1 (configuration not stated) | 3.56 |
| CCCS(=O)(=O)CCC | 0.39 |
| c1ccc(COc2ccccc2)cc1 | 3.79 |
| CNC(=O)Oc1ccccc1Br | 1.77 |
| O=C(O)Cc1ccccc1Nc1ccccc1 | 3.49 |
| C=CCBr | 1.79 |
| COC1C(O)C(C)OC(OC2CCC3(C)C(CCC4C3CCC3(C)C4(O)CC(O)C34C=CC(=O)OC4)C2)C1O (configuration not stated) | 0.59 |
| CC(O)C(C)O (configuration not stated) | -0.92 |
| CC(C)Oc1ccc([N+](=O)[O-])cc1 | 2.8 |
| COC(=O)C(C)N(C(=O)Cc1ccccc1)c1c(C)cccc1C (configuration not stated) | 3.4 |
| Clc1c(Cl)c(Cl)c2ccccc2c1Cl | 5.75 |
| NCCCN1CCN(CCCN)CC1 | -1.43 |
| OC(Cn1ccnc1)c1ccc(CCc2ccccc2)cc1 (configuration not stated) | 3.4 |
| O=[N+]([O-])c1ccc(Cl)c(Cl)c1 | 3.12 |
| CC(C)N(Cc1cccnc1)C(C)C | 2.27 |
| Oc1ccc(C(c2ccccc2)c2ccc(O)cc2)cc1 | 4.3 |
| CC(C)(C)c1ccc([N+](=O)[O-])cc1 | 3.89 |
| CCn1nc2ccccc2n1 | 2.1 |
| Oc1cccnc1 | 0.48 |
| CNC(=O)Oc1cccc(C#N)c1 | 0.97 |

| SMILES | logP |
| --- | --- |
| CCC[N+](=O)[O-] | 0.87 |
| CCCOC=O | 0.83 |
| Cc1ccccc1OC(=O)N(C)C | 1.86 |
| NCCCCCc1ccncc1 | 1.4 |
| CN=C(O)Oc1cccc(C)c1 | 1.7 |
| C=CC#N | 0.25 |
| OC(c1ccccc1)C(O)c1ccccc1 (configuration not stated) | 1.91 |
| CC(=O)N(C)Nc1ccccc1 | 1.31 |
| CC(=O)Nc1ccc(C=O)cc1 | 1.25 |
| NS(=O)(=O)c1cc2c(cc1Cl)NC(CCl)NS2(=O)=O (configuration not stated) | 0.11 |
| COc1ccc(CO)cc1 | 1.1 |
| Cc1[nH]cnc1CSCCNc1nc(=O)cc[nH]1 | 0.02 |
| Cc1ccc(S(=O)(=O)F)cc1 | 2.74 |
| COc1ccc(C(C)=O)cc1 | 1.74 |
| CC(=O)c1ccc(C)cc1 | 2.1 |
| CN1CCC(CN2c3ccccc3Sc3ccccc32)C1 (configuration not stated) | 5.23 |
| O=S(=O)(CCl)c1ccccc1 | 1.24 |
| Clc1ccc2ccccc2c1Cl | 4.42 |
| FCCl | 0.51 |
